In US12472196B2, “Use of DNMT inhibitor” (priority 2019, dated 2025):
Where two headings read alike, the source gives them in different places.

Tests used:
cytidine deaminase = cytidine deaminase (Homo sapiens, UniProt P32320); experiment: Stability against cytidine deaminase (HPLC)
Protocol: About 1 mg of a silyl etherified derivative of 5-aza-2′-deoxycytidine in carbohydrate moiety (see formula (I)) was dissolved in 1 mL of acetonitrile. 10 μL of the solution was added to 1 mL of PBS. 10 μl of a PBS solution of cytidine deaminase was added to the obtained solution and stirred at 37° C. for about 1 hour. 1 mL of acetonitrile was added to the reaction solution and centrifuged. The supernatant was analyzed with HPLC.
Cytidine deaminase: CDA (1-146aa), Human, His-tagged, Recombinant cytidine deaminase (ATGen) • HPLC conditions: • Column: CAPCELL PAK ADME (4.6 mm×150 mm, particle size: 3 μm) • Elution: eluate A=Purified water containing 10 mM ammonium formate • Eluate B=Acetonitrile • Gradient mode: A:B=99:1→5:95/30 minutes • Flow rate: 1.0 mL/min • Oven temperature: 40° C. • Detection: UV240 nm

[1] = Non-enzymatic hydrolysis in PBS solution at 37° C. (HPLC); format: physicochemical
Protocol: A silyl etherified derivative of 5-aza-2′-deoxycytidine in carbohydrate moiety (see formula (I)), for example, 5′-O-(triethylsilyl)-5-aza-2′-deoxycytidine (Compound F) (about 1 mg) was dissolved in 1 mL of acetonitrile. 5 μL of the solution was added to 100 μL of a PBS solution (10 mM), and stirred at 37° C. The reactant was analyzed over the time with HPLC.
HPLC conditions were same as those in test example 1.

BV173 = experiment: cells
Protocol: (§1) The CML cell line (BV173, MYL, Ba/F3 BCR-ABL^WT) and the TKI-resistant CML cell line (MYL-R, Ba/F3 BCR-ABL^T315I) in the Table below were seeded in 96-well plates at 3,000-7,000 cells/100 μL/well in a culture solution (10% FBS and RPMI-1640) and cultured under 5% CO2 gas flow at 37° C. for about 3 hours. Then, 100 μL of each compound diluted with the culture solution to 50-0.05 μM MYL, Ba/F3 BCR-ABL^WT, MYL-R, Ba/F3 BCR-ABL^T315I and 500 nM-0.1 nM BV173 was added to the above 96-well plates and cultured for 24 hours, followed by centrifugation (4° C., 1500 rpm, 5 minutes). The supernatant of the culture solution was discarded. 100 μL each of the compounds diluted with the culture solution was added again and cultured further for 24 hours (48 hours totally). The same procedure was repeated. After further culturing for 24 hours (72 hours totally) and reaction using CCK-8 reagent (DOJINDO, CK04) according to its attached instruction, the absorption at 450 nm and 620 nm (blank) of each well was determined with a plate reader (Varioskan Flash, Thermo-Fisher Scientific Co. Ltd.). The values of the wells without sample treatment were taken as 100%, and those of the wells treated with the samples were expressed as relative values. The values of IC50 (μm) were calculated (see Table 3-1). In addition, IC50 ratio of MYL-R cell line to MYL cell line and that of Ba/F3 BCR-ABL^T315I cell line to Ba/F3 BCR-ABL^WT cell line were calculated (see Table 3-2).

Ba/F3 BCR-ABL^WT = experiment: cells; settings: Mus musculus, BaF3, 72 h, read-out: IC50 Ba/F3 BCR-ABL^WT
Protocol: as §1

MYL = experiment: cells; settings: 72 h, read-out: IC50 MYL
Protocol: as §1

Ba/F3 BCR-ABL^T315I = experiment: cells
Protocol: as §1
(§2) MYL-R cell line is an MYL cell line in which Lyn is overexpressed, and Ba/F3 BCR-ABL^T315I cell line is the one in which ABLT315I mutation is introduced into Ba/F3 BCR-ABL^WT cell line. They both have acquired resistance to TKI.

MYL-R = experiment: cells
Protocol: as §1, §2

[2] = system: CpG island of LINE-1 in BV173 cell line; experiment: DNA demethylation effect: CpG methylation ratio of LINE-1 by pyrosequencing; format: cell-based; settings: BV173, 72 hours
Protocol: The methylation ratio of cytosine moiety of CpG island of LINE-1 (long interspersed nucleotide factor −1) was determined by using a method of pyrosequencing.
Solutions of silyl etherified derivatives of 5-aza-2′-deoxycytidine in carbohydrate moiety (for example, Compound F: 5′-O-(triethylsilyl)-5-aza-2′-deoxycytidine) at concentrations of 0.1 nM, 1.0 nM, 5.0 nM, 10.0 nM, and 50.0 nM were added, respectively to a solution containing BV173 cell line (about 50,000 cells/mL), and cultured in a RPMI-1640 medium (containing 10% FBS and Penn-strep) for 72 hours. Then, DNA was extracted from the cells and treated with hydrogensulfite. CpG methylation ratio of LINE-1 was determined (see Table 4).

Sequence of cytidine deaminase (P32320 whole entry): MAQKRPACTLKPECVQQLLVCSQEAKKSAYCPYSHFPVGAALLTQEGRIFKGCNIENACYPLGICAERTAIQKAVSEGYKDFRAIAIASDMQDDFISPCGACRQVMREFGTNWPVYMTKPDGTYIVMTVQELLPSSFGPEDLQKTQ

Nc1ncn([C@H]2C[C@H](O)[C@@H](CO)O2)c(=O)n1 [5-Aza-2′-deoxycytidine]
Change in HPLC pattern (cytidine deaminase): The peak for starting material disappeared | stability to cytidine deaminase (in words) (cytidine deaminase): disappeared completely | time within which decomposed in the presence of cytidine deaminase (cytidine deaminase; under the condition used): ≤ 30 min

CC[Si](CC)(CC)OC[C@H]1O[C@@H](n2cnc(N)nc2=O)C[C@@H]1O [Compound F, 5′-O-(Triethylsilyl)-5-aza-2′-deoxycytidine]
Change in HPLC pattern (cytidine deaminase; PBS with recombinant human cytidine deaminase, 37° C., about 1 hour): Almost no change in the peak for | 5-Aza-2′-deoxycytidine (%) After 4 hours ([1]; 10 mM PBS, 4 hours, desilyl form produced): 10% | 5-Aza-2′-deoxycytidine (%) After 8 hours ([1]; 10 mM PBS, 8 hours, desilyl form produced): 12% | 5-Aza-2′-deoxycytidine (%) After 24 hours ([1]; 10 mM PBS, 24 hours, desilyl form produced): 48% | non-enzymatic hydrolysis in PBS solution (in words) ([1]; PBS): the corresponding desilyl form (5-aza-2′-deoxycytizine: R^1 and R^2 are hydrogen atoms in formula (I)) was produced almost without other decomposition products | anti-CML activity (in words) (BV173; CML cell lines of Table 3-1 (BV173, MYL, Ba/F3 BCR-ABL^WT)): very high anti-CML activity | IC50 (BV173; Homo sapiens, BV-173, 72 h, read-out: IC50 BV173): 5 nM | IC50 (Ba/F3 BCR-ABL^WT): 580 nM | IC50 (MYL): 280 nM | IC50 (Ba/F3 BCR-ABL^T315I; Mus musculus, BaF3, 72 h, read-out: IC50 Ba/F3 BCR-ABL^T315I): 780 nM | IC50 ratio Ba/F3 BCR-ABL^T315I/BCR-ABL^WT (Ba/F3 BCR-ABL^T315I; ratio of IC50 in Ba/F3 BCR-ABL^T315I to Ba/F3 BCR-ABL^WT): 1.4 | IC50 (MYL-R; 72 h, read-out: IC50 MYL-R): 790 nM | anti-CML activity against MYL-R strain compared with reference nucleosides (in words) (MYL-R; MYL-R): considerably higher than that in the case of 5-aza cytidine | anti-TKI-resistant CML activity (in words) (MYL-R; TKI-resistant CML cell lines of Table 3-1 (MYL-R, Ba/F3 BCR-ABL^T315I)): anti-TKI-resistant CML activity | IC50 ratio MYL-R/MYL (MYL-R; ratio of IC50 in MYL-R to MYL): 2.8 | Methylation ratio ([2]; 0.1 nM): 89.3% | Methylation ratio ([2]; 1.0 nM): 89.7% | Methylation ratio ([2]; 5.0 nM): 88.0% | Methylation ratio ([2]; 10.0 nM): 82.3% | Methylation ratio ([2]; 50.0 nM): 60.0%
